Reference: paper PMC10342305, “Identification of N-Acyl Hydrazones as New Non-Zinc-Binding MMP-13 Inhibitors by Structure-Based Virtual Screening Studies and Chemical Optimization” (International Journal of Molecular Sciences, 2023)

Tests used:
MMP-14 = target: T1, MMP-14 (Homo sapiens, UniProt P50281); assay: Fluorometric enzyme inhibition assay on MMP-14 catalytic domain; assay type: biochemical; details: mean ± SD of three independent experiments
T1 construct: Recombinant human MMP-14 catalytic domain; gift from Prof; Gillian Murphy (Department of Oncology, University of Cambridge, UK)
Experimental: (§1) Recombinant human MMP-14 catalytic domain was a kind gift from Prof. Gillian Murphy (Department of Oncology, University of Cambridge, UK). Pro-MMP-1, pro-MMP-2, pro-MMP-9, and pro-MMP-13 were purchased from Merck Millipore (Burlington, MA, USA). p-Aminophenylmercuric acetate (APMA) was from Sigma-Aldrich (St. Louis, MO, USA).
(§2) For assay measurements, the purchased compound stock solutions (10 mM in DMSO) were further diluted for each MMP in the fluorometric assay buffer (FAB: Tris 50 mM, pH = 7.5, NaCl 150 mM, CaCl2 10 mM, Brij 35 0.05%, and DMSO 1%), following the protocol already reported. […] The assays were performed in triplicate with a total volume of 200 μL per well in 96-well microtitre plates (Corning, black, NBS, Turin, Italy). The MMP inhibition activity was expressed in relative fluorescent units (RFU). The percentage of inhibition was calculated from control reactions without the inhibitor. The inhibitory effect of the tested compounds was routinely estimated at a concentration of 100 μM on MMP-13. […] Results were analyzed using SoftMax Pro software version 5.4.3 (Molecular Devices, Sunnyvale, CA, USA) and Prism Software version 5.0 (GraphPad Software, Inc., La Jolla, CA, USA).

MMP-1 = target: T2, MMP-1 (Homo sapiens, UniProt P03956); assay: Fluorometric enzyme inhibition assay on MMP-1
T2 sequence (P03956 100-469): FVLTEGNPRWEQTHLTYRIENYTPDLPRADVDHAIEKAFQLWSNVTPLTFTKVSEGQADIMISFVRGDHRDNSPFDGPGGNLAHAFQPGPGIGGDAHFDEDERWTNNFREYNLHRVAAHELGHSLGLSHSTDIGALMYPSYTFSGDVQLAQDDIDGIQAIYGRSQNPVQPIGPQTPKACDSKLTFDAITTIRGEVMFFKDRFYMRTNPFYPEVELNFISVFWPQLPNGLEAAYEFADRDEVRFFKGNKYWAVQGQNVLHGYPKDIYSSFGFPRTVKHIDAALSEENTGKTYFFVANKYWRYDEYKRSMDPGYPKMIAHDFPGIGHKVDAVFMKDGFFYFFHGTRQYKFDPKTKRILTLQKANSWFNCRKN

MMP-2 = target: T3, MMP-2 (Homo sapiens, UniProt P08253); assay: Fluorometric enzyme inhibition assay on MMP-2
T3 sequence (P08253 110-660): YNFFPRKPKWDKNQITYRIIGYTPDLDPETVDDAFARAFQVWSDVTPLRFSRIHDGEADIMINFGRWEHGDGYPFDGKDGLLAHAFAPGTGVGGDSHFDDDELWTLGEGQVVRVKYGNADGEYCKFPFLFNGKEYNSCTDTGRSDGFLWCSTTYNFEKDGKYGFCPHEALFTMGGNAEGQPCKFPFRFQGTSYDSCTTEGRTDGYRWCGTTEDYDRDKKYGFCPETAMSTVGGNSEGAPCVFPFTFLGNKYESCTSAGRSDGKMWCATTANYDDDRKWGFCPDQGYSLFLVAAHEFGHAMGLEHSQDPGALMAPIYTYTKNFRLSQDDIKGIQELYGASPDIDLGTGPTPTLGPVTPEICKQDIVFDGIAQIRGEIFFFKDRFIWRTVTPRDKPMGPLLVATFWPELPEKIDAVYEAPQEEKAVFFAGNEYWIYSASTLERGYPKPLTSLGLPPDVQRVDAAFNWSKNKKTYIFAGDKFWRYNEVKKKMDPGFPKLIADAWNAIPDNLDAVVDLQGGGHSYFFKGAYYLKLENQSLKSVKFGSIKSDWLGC

MMP-9 = MMP-9 (Homo sapiens, UniProt P14780); assay: Fluorometric enzyme inhibition assay on MMP-9
Chain of MMP-9 (P14780 107-707 limits assumed): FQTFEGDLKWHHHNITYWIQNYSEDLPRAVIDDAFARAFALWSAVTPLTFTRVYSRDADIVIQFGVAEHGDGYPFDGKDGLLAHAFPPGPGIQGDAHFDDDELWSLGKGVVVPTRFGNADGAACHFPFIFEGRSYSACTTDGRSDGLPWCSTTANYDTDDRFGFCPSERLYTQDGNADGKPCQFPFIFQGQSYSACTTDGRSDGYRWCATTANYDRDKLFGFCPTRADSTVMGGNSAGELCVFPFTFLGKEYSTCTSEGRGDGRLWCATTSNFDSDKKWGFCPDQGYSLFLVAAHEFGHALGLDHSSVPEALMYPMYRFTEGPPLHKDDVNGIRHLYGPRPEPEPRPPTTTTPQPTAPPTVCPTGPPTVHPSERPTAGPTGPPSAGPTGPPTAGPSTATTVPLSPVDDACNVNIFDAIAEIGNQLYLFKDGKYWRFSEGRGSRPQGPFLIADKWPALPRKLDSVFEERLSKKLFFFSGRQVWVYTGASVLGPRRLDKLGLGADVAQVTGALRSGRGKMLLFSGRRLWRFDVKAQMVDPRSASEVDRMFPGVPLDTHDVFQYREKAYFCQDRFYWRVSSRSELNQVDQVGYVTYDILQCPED

MMP-13 = target: T4, MMP-13 (Homo sapiens, UniProt P45452); assay: Fluorometric enzyme inhibition assay on MMP-13; assay type: biochemical; details: mean ± SD of three independent experiments
T4 construct: purchased Merck Millipore (Burlington, MA, USA)
Description: ARP100 [26], a hydroxamate-based MMP inhibitor previously developed by our research group, was used in the same assay conditions as the reference compound.
as §1, §2

N#C/C(=C\c1cn(Cc2ccc(Cl)cc2)c2ccccc12)c1nn(-c2ccccc2)c(N)c1C#N [Compound 11]
IC50 (MMP-14): 94 ± 5.5 µM | IC50 (MMP-1): 99 ± 8 µM | IC50 (MMP-2): 60 ± 4.6 µM | IC50 (MMP-9): 66 ± 4.6 µM

O=C(COC(=O)c1ccccc1Sc1ccc([N+](=O)[O-])cc1)c1ccc(-c2ccccc2)cc1 [Compound 12]
IC50 (MMP-14): 67 ± 4.6 µM | IC50 (MMP-1): 75 ± 4 µM | IC50 (MMP-2): 47 ± 1.6 µM | IC50 (MMP-9): 72 ± 4.8 µM

C/C(=N\NC(=O)Cc1ccc([N+](=O)[O-])cc1)c1ccc(NC(=O)c2ccc(Br)o2)cc1 [Compound 13, (E)-5-bromo-N-(4-(1-(2-(2-(4-nitrophenyl)acetyl)hydrazineylidene)ethyl)phenyl)furan-2-carboxamide]
IC50 (MMP-14): 63 ± 5.4 µM | IC50 (MMP-1): 91 ± 0.8 µM | IC50 (MMP-2): 99 ± 6 µM | IC50 (MMP-9): 68 ± 3 µM

C/C(=N\NC(=O)Cc1ccc([N+](=O)[O-])cc1)c1ccc(NC(=O)c2ccc(S(N)(=O)=O)o2)cc1 [Compound 13a]
IC50 (MMP-13): > 100 µM | melting point: 255 to 258 °C

C/C(=N\NC(=O)Cc1ccc([N+](=O)[O-])cc1)c1ccc(NC(=O)c2ccc(CO)o2)cc1 [Compound 13b, (E)-5-(hydroxymethyl)-N-(4-(1-(2-(2-(4nitrophenyl)acetyl)hydrazineylidene)ethyl)phenyl) furan-2-carboxamide]
IC50 (MMP-13): > 100 µM | melting point: 238 to 241 °C

O=C(Cc1ccc([N+](=O)[O-])cc1)N/N=C/c1ccc(NC(=O)c2ccc(Br)o2)cc1 [Compound 13c, (E)-5-bromo-N-(4-((2-(2-(4-nitrophenyl)acetyl)hydrazineylidene)methyl)phenyl)furan-2-carboxamide]
melting point: 277 to 279 °C

O=C(Cc1ccc([N+](=O)[O-])cc1)N/N=C/c1ccc(NC(=O)c2ccc(CO)o2)cc1 [Compound 13d, (E)-5-(hydroxymethyl)-N-(4-((2-(2-(4-nitrophenyl)acetyl)hydrazineylidene)methyl)phenyl) furan-2-carboxamide]
IC50 (MMP-13): 40 ± 3.5 µM | melting point: 246 to 248 °C

C/C(=N\NC(=O)Cc1ccc(-c2nc(C)no2)cc1)c1ccc(NC(=O)c2ccc(Br)o2)cc1 [Compound 13e, (E)-5-bromo-N-(4-(1-(2-(2-(4-(3-methyl-1,2,4-oxadiazol-5-yl)phenyl)acetyl)hydrazineylidene)ethyl)phenyl)furan-2-carboxamide]
IC50 (MMP-13): > 100 µM | melting point: 252 to 255 °C

C/C(=N\NC(=O)Cc1ccc(-c2nc(C)no2)cc1)c1ccc(NC(=O)c2ccc(CO)o2)cc1 [Compound 13f, (E)-5-(hydroxymethyl)-N-(4-(1-(2-(2-(4-(3-methyl-1,2,4-oxadiazol-5-yl)phenyl)acetyl)hydrazineylidene)ethyl)phenyl)furan-2-carboxamide]
melting point: 243 to 246 °C

Cc1noc(-c2ccc(CC(=O)N/N=C/c3ccc(NC(=O)c4ccc(CO)o4)cc3)cc2)n1 [Compound 13g, (E)-5-(hydroxymethyl)-N-(4-((2-(2-(4-(3-methyl-1,2,4-oxadiazol-5-yl)phenyl)acetyl) hydrazono)methyl)phenyl)furan-2-carboxamide]
melting point: 232 to 235 °C

C/C(=N\NC(=O)Cc1ccc(C(=O)O)cc1)c1ccc(NC(=O)c2ccc(Br)o2)cc1 [Compound 13h, (E)-4-(2-(2-(1-(4-(5-bromofuran-2-carboxamido)phenyl)ethylidene)hydrazineyl)-2-oxoethyl)benzoic acid]
melting point: 292 to 295 °C

C/C(=N\NC(=O)Cc1ccc(C(=O)O)cc1)c1ccc(NC(=O)c2ccc(CO)o2)cc1 [Compound 13i, (E)-4-(2-(2-(1-(4-(5-(hydroxymethyl)furan-2-carboxamido)phenyl)ethylidene)hydrazineyl)-2-oxoethyl)benzoic acid]
melting point: 232 to 235 °C

O=C(Cc1ccc(C(=O)O)cc1)N/N=C/c1ccc(NC(=O)c2ccc(Br)o2)cc1 [Compound 13l, (E)-4-(2-(2-(4-(5-bromofuran-2-carboxamido)benzylidene)hydrazineyl)-2-oxoethyl)benzoic acid]
melting point: 307 to 310 °C

O=C(Cc1ccc(C(=O)O)cc1)N/N=C/c1ccc(CNC(=O)c2ccc(Br)o2)cc1 [Compound 13m, (E)-4-(2-(2-(4-((5-bromofuran-2-carboxamido)methyl)benzylidene)hydrazineyl)-2-oxoethyl)benzoic acid]
IC50 (MMP-14): > 200 µM | IC50 (MMP-1): 177 ± 20 µM | IC50 (MMP-2): 3.6 ± 0.4 µM | IC50 (MMP-9): 50 ± 3.2 µM

O=C(Cc1ccc(-c2nnn[nH]2)cc1)N/N=C/c1ccc(NC(=O)c2ccc(Br)o2)cc1 [Compound 13n, (E)-N-(4-((2-(2-(4-(1H-tetrazol-5-yl)phenyl)acetyl)hydrazineylidene)methyl)phenyl)-5-bromofuran-2-carboxamide]
melting point: 262 to 265 °C

O=C(Cc1ccc(-c2nnn[nH]2)cc1)N/N=C/c1ccc(CNC(=O)c2ccc(Br)o2)cc1 [Compound 13o, (E)-N-(4-((2-(2-(4-(1H-tetrazol-5-yl)phenyl)acetyl)hydrazineylidene)methyl)benzyl)-5-bromofuran-2-carboxamide]
melting point: 245 to 248 °C
